The source of these data is PMC10177380 (Cancers, 2023).

In general, GI50 refers to the concentration at which growth is held to half of that of the control.

Where two headings read alike, the source gives them in different places.

Assay [1] deals with T1, COX-2 (human) (Homo sapiens, UniProt P35354).
T1 construct: purchased Cayman Chemical Item No. 701080
T1 sequence (P35354 18-604): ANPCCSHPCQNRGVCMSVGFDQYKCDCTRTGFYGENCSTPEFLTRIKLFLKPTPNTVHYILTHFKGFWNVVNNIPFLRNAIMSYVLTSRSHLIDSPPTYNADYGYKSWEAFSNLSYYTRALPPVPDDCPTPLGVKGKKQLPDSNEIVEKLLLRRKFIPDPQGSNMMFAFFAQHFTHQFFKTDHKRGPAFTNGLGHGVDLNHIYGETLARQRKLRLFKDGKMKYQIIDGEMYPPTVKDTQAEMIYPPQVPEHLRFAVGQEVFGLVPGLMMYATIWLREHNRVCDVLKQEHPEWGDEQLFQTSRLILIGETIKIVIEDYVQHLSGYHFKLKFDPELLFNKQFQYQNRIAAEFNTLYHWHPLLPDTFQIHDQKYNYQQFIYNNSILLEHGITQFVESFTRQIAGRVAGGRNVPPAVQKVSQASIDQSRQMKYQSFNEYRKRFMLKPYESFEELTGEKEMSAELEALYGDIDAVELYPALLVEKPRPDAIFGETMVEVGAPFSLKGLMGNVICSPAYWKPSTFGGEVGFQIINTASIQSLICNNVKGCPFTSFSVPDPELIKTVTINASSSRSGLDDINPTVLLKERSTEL
In words: COX-2 (human) Inhibitor Screening Assay Kit (ELISA). The class given is biochemical. Also noted: concentration or dose not given beside the values. From the text: NSAIDs are well recognised as inhibitors of the COX enzymes, COX-1 and COX-2 [37, 42, 45]. […] COX-1 is typically expressed in most tissues and is associated with normal physiological functions, particularly by maintaining prostaglandin production at basal levels. In contrast, COX-2 is involved in the excessive production of prostaglandin during inflammation (or hypoxia), and extensive studies have shown that COX-2 resultant prostaglandins are overexpressed in tumours. […] To explore the COX-2 inhibitory properties of the studied complexes (1–6), ELISA was used against the COX-2 enzyme. […]
6. Cyclooxygenase-2 (COX-2) Inhibition
The standards, samples and assay preparation, and completion were achieved as instructed by the manufacturer. The assay necessitated three steps, being the standards preparation, the COX reaction, and the enzyme immunoassay. The standards were prepared in 2-fold serial dilution of the prostaglandin F2α enzyme-linked immunosorbent assay (ELISA) standard starting at 500 pg/mL to 3.9 pg/mL in ELISA buffer (1X). The COX reaction dilution preparation for the background samples included the addition of background COX-2 (20 μL), which was inactivated in boiling water for 3 min. The background values were generated by adding 10 μL of the inactivated COX-2, 160 μL of the reaction buffer (1X), 10 μL of heme and 10 μL of DMSO (inhibitor vehicle). The COX reaction dilution preparation for the COX-2 100% initial activity samples included the addition 160 μL of the reaction buffer (1X), 10 μL of heme, 10 μL of COX-2 and 10 μL of DMSO (inhibitor vehicle). The COX reaction dilution preparation for the COX-2 inhibitor samples included the addition of 160 μL of the reaction buffer (1X), 10 μL of heme, 10 μL […]
The reaction was then initiated by the addition of 10 μL of arachidonic acid and potassium hydroxide solution (1:1), and […]
enzyme catalysis. The tubes were then vortexed and incubated for 5 min at room […]
temperature. The background samples were diluted with ELISA buffer (1X) 1:100 times […]
and the COX-2 100% initial activity and COX-2 inhibitor samples were diluted 1:2000 and […]
1:4000 times. For the enzyme immunoassay, 100 μL of the ELISA buffer (1X) was added […]
to non-specific binding wells (NSBs), 50 μL of the ELISA buffer (1X) was added to […]
maximum binding wells (B0) and 50 μL of each prostaglandin F2α standard was added to […]
standard wells in duplicates. 50 μL of background sample and 50 μL of COX-2 100% […]
initial activity samples were independently added to the wells in duplicates. Inhibitor […]
samples (50 μL) being investigated were added to the wells in triplicates. Prostaglandin […]
F2α acetyl-cholinesterase (AChE) tracer (50 μL) was added to all wells but the total […]
activity well and blank wells. Prostaglandin F2α ELISA antiserum (50 μL) was added to […]
each well but the total activity well, NSBs and blank wells. The plate was then covered […]
with a plastic seal and incubated overnight at room temperature on an orbital shaker. The […]
wells were then washed five times using kit wash buffer (1X). Ellman’s reagent (200 μL) […]
was then added to each well, as well as 5 μL of the AChE tracer into the total activity […]
well. The plate was then covered with the plastic seal, placed on an orbital shaker in the […]
dark to develop for 2 hours at room temperature. […]
nm using the SpectraMax M2 series multi-mode microplate reader (Molecular Devices, […]
In general terms: An ELISA detects its analyte on a solid surface through an enzyme-linked reagent.

Assay [2] relates to HT29 colon cells. In words: Mitochondrial membrane potential, TMRE-MtMP assay. As to conditions: treatment at GI50 concentration (FCCP positive control 20 μM). The class given is cell-based, human. From the text:
To study the MtMP changes in treated cells, a TMRE-MtMP Assay Kit (Abcam, Cambridge, MA, USA) was used (see Supplementary Materials).
TMRE was used to stain HT29 colon cells, and treatment with the complexes and ligands was completed at each specific GI50 concentration. The MtMP changes detected are expressed as RFU. Additionally, lower RFU values correspond to a decline in mitochondrial activity. […]
dimethylthiazol-2-yl]-2,5-diphenyltetrazolium bromide) assay and absorbance was read at 540 nm. An eight-point dose response curve was produced from which the GI50 value was calculated, representing the drug concentration at which cell growth was inhibited by 50% based on the difference between the optical density values on day 0 and those at the end of drug exposure. […]
5. Mitochondrial Membrane Potential (MtMP)
In 96-well plates, 25,000 cells/mL of HT29 colon cells in DMEM were seeded. Cells were treated with a GI50 drug concentration for each complex. […]
washed with PBS and stained with 1 μM tetramethylrhodamine, ethyl ester (TMRE) and incubated for 30 min. TMRE was then removed, and cells were then re-washed with PBS (0.2% BSA), after which phenol red free media was added. The plates were directly scanned to measure fluorescence (expressed as RFU), using the Glo-Max®-Multimode […]
microplate reader (Promega Corporation, Alexandra, VIC, Australia) at an […]
For the positive control, 20 μM carbonyl cyanide 4-(trifluoromethoxy) phenylhydrazone (FCCP)) was added to the cells and incubated for 10 min. The cells were washed with PBS (0.2% BSA) and stained with TMRE (1 μM) for 30 min; this was removed and phenol red free media was added, and the final solution was scanned as mentioned above. […]

In assay [3] the test system is HT29 colon. In words: MTT growth inhibition, 72 h, HT29. The assay is classed as cell-based, human.

For the molecule `COc1ccc2c(c1)c(CC(=O)OCC(=O)O)c(C)n2C(=O)c1ccc(Cl)cc1` [ACE, acemetacin], in assay [1], the “Percentage COX-2 Inhibitory Activity” value was 76 ± 8%. Moreover, the “MtMP Changes” value is given as 494 ± 6 RFU in assay [2] (HT29, 24 h); 371 ± 10 RFU in assay [2] (HT29, 48 h); 295 ± 13 RFU in assay [2] (HT29, 72 h). In assay [3] (Homo sapiens, HT-29), this molecule displayed a concentration for 50% growth inhibition (GI50) above 50000 nM.
For the molecule `N.N.[Cl][Pt][Cl]` [Cisplatin, cis-diamminedichloroplatinum(II)], in assay [1], the “Percentage COX-2 Inhibitory Activity” value turned out to be 9 ± 2%. The “MtMP Changes” value in assay [2] (HT29, 24 h) is listed as 256 ± 9 RFU; in assay [2] (HT29, 48 h), 236 ± 13 RFU; in assay [2] (HT29, 72 h) it was 199 ± 11 RFU.
On to `COc1ccc2cc([C@H](C)C(=O)[O][Pt+2]3([OH])[N]4C=CC=c5ccc6c(c54)[N]3C=CC=6)ccc2c1.N[C@H]1CCCC[C@@H]1N` [Complex 1, [Pt^IV(phen)(SS-DACH)(NPX)(OH)]^2+], for which the “Percentage COX-2 Inhibitory Activity” value in assay [1] is 55 ± 3%. The “MtMP Changes” value was found to be 382 ± 11 RFU in assay [2] (HT29, 24 h); 211 ± 12 RFU in assay [2] (HT29, 48 h); 163 ± 5 RFU in assay [2] (HT29, 72 h). In assay [3], this molecule came in with a 50% growth inhibitory concentration (GI50) of 400 ± 23 nM.
With `COc1ccc2cc([C@H](C)C(=O)[O][Pt+2]3([OH])[N]4C=CC=c5cc(C)c6c(c54)[N]3C=CC=6)ccc2c1.N[C@H]1CCCC[C@@H]1N` (some centres unmarked) [Complex 2, [Pt^IV(5-Mephen)(SS-DACH)(NPX)(OH)]^2+], in assay [1], the “Percentage COX-2 Inhibitory Activity” value was 44 ± 6%. The “MtMP Changes” value in assay [2] (HT29, 24 h) is recorded as 368 ± 9 RFU; in assay [2] (HT29, 48 h), 160 ± 13 RFU; in assay [2] (HT29, 72 h), 130 ± 7 RFU. For the same molecule, in assay [3], growth was halved (GI50) at 210 ± 19 nM.
As for `COc1ccc2cc([C@H](C)C(=O)[O][Pt+2]3([OH])[N]4C=CC=c5c(C)c(C)c6c(c54)[N]3C=CC=6)ccc2c1.N[C@H]1CCCC[C@@H]1N` [Complex 3, [Pt^IV(5,6-Me2phen)(SS-DACH)(NPX)(OH)]^2+], the “Percentage COX-2 Inhibitory Activity” value in assay [1] is reported as 37 ± 4%. In addition, the “MtMP Changes” value was 351 ± 5 RFU in assay [2] (HT29, 24 h); 152 ± 8 RFU in assay [2] (HT29, 48 h); 104 ± 6 RFU in assay [2] (HT29, 72 h). Besides, in assay [3], the GI50 came out at 28 ± 6 nM.
Take `COc1ccc2c(c1)c(CC(=O)OCC(=O)[O][Pt-2]13([OH])([NH2+][C@H]4CCCC[C@@H]4[NH2+]1)[n+]1cccc4ccc5ccc[n+]3c5c41)c(C)n2C(=O)c1ccc(Cl)cc1` [Complex 4, [Pt^IV(phen)(SS-DACH)(ACE)(OH)]^2+]: the “Percentage COX-2 Inhibitory Activity” value in assay [1] was found to be 48 ± 3%. Also, the “MtMP Changes” value is on record as 416 ± 8 RFU in assay [2] (HT29, 24 h); 343 ± 8 RFU in assay [2] (HT29, 48 h); 184 ± 5 RFU in assay [2] (HT29, 72 h). Moreover, in assay [3], the GI50 turned out to be 290 ± 30 nM.
For `COc1ccc2c(c1)c(CC(=O)OCC(=O)[O][Pt-2]13([OH])([NH2+][C@H]4CCCC[C@@H]4[NH2+]1)[n+]1cccc4cc(C)c5ccc[n+]3c5c41)c(C)n2C(=O)c1ccc(Cl)cc1` [Complex 5, [Pt^IV(5-Mephen)(SS-DACH)(ACE)(OH)]^2+], the “Percentage COX-2 Inhibitory Activity” value in assay [1] was 36 ± 2%. Besides, the “MtMP Changes” value was 412 ± 4 RFU in assay [2] (HT29, 24 h); 284 ± 12 RFU in assay [2] (HT29, 48 h); 140 ± 5 RFU in assay [2] (HT29, 72 h). Besides, the concentration for 50% growth inhibition (GI50) in assay [3] was 13 ± 8 nM.
With `Cc1cc2c3c4c1=CC=C[N]4[Pt+2][N]3C=CC=2.N[C@H]1CCCC[C@@H]1N` [Complex 5MESS], in assay [1], the “Percentage COX-2 Inhibitory Activity” value is listed as 6 ± 3%. Further, the “MtMP Changes” value in assay [2] (HT29, 24 h) was found to be 210 ± 15 RFU; in assay [2] (HT29, 48 h), 204 ± 6 RFU; in assay [2] (HT29, 72 h), 144 ± 5 RFU.
Consider `COc1ccc2c(c1)c(CC(=O)OCC(=O)[O][Pt-2]13([OH])([NH2+][C@H]4CCCC[C@@H]4[NH2+]1)[n+]1cccc4c(C)c(C)c5ccc[n+]3c5c41)c(C)n2C(=O)c1ccc(Cl)cc1` [Complex 6, [Pt^IV(5,6-Me2phen)(SS-DACH)(ACE)(OH)]^2+], for which, in assay [1], the “Percentage COX-2 Inhibitory Activity” value stood at 32 ± 3%. Further, the “MtMP Changes” value was determined as 387 ± 7 RFU in assay [2] (HT29, 24 h); 284 ± 11 RFU in assay [2] (HT29, 48 h); 112 ± 8 RFU in assay [2] (HT29, 72 h). The molecule further yielded a GI50 in assay [3] of 4.7 ± 4 nM.
For the molecule `Cc1c(C)c2cccnc2c2ncccc12.N[C@H]1CCCC[C@@H]1N.[Pt]` [Complex 56MESS, [Pt^II(5,6-Me2phen)(SS-DACH)]^2+], the “Percentage COX-2 Inhibitory Activity” value in assay [1] is listed as 5 ± 4%. Besides, the “MtMP Changes” value worked out at 156 ± 10 RFU in assay [2] (HT29, 24 h); 162 ± 13 RFU in assay [2] (HT29, 48 h); 103 ± 7 RFU in assay [2] (HT29, 72 h).
For `COc1ccc2cc([C@H](C)C(=O)O)ccc2c1` [NPX, naproxen], the “Percentage COX-2 Inhibitory Activity” value in assay [1] (72 h) amounted to 83 ± 5%. Besides, the “MtMP Changes” value in assay [2] (HT29, 24 h) is 499 ± 10 RFU; in assay [2] (HT29, 48 h), 397 ± 13 RFU; in assay [2] (HT29, 72 h), 304 ± 9 RFU. Moreover, in assay [3] (Homo sapiens, HT-29), the 50% growth inhibitory concentration (GI50) is above 50000 nM.
For `C1=C[N]2[Pt+2][N]3C=CC=c4ccc(c2c43)=C1.N[C@H]1CCCC[C@@H]1N` [PHENSS], the “Percentage COX-2 Inhibitory Activity” value in assay [1] was 8 ± 4%. Besides, the “MtMP Changes” value was 289 ± 17 RFU in assay [2] (HT29, 24 h); 271 ± 15 RFU in assay [2] (HT29, 48 h); 237 ± 10 RFU in assay [2] (HT29, 72 h).
